Assay results as given in patent US4596808A, “Pharmacologically active 3-substituted beta-carbolines useful as tranquilizers” (Schering Aktiengesellschaft, priority 1980, dated 1986).
Where two headings read alike, the source gives them in different places.

Columns and labels:
benzodiazepine receptor [1] = experiment: Displacement of 3H-flunitrazepam from benzodiazepine receptors in vitro (IC50); type: binding; conditions: rat forebrain, 3H-flunitrazepam 1.0 nM, 0° C.
Excerpt: For example, it is known that certain locations in the central nervous system of vertebrates have a high specific affinity for bonding 1,4 and 1,5-benzodiazepines. (See, e.g., R. F. Squires & C. Braestrup, Nature [London] 266 [1977], 734, which is incorporated by reference herein). These locations are called benzodiazepine receptors.
This displacement activity of the compounds of this invention has been determined by measuring IC50 and ED50 values. The IC50 value is the concentration which causes a 50% displacement of the specific binding of ^3 H-flunitrazepam (1.0 nM, 0° C.) in samples with a total volume of 0.55 ml of a suspension of brain membrane, e.g., from rats.
The displacement test is carried out as follows:
0.5 ml of a suspension of untreated rat forebrain in 25 mM KH2 PO4, at a pH of 7.1 (5-10 mg of tissue per sample) were incubated with ^3 H-diazepam (specific activity 14.4 Ci/millimole, 1.9 nM) or ^3 H-flunitrazepam (specific activity 87 Ci/millimole, 1.0 nM) for 40-60 minutes at 0° C. After incubation, the suspension is filtered through a glass frit, the residue is washed twice with a cold buffer solution and the radioactivity is measured by scintillation counting.
The test is then repeated, except prior to addition of the radioactively marked benzodiazepine, a given amount or an excess amount of the compound whose displacement activity is to be ascertained, is added. The IC50 value can then be computed from the test results obtained.

benzodiazepine receptor [2] = experiment: In vivo inhibition of 3H-flunitrazepam binding to the benzodiazepine receptor in living brain (ED50); conditions: mice, subcutaneous, 3H-flunitrazepam i.v. 15 min later
[3] = test system: pentazole-induced convulsions; experiment: Antagonism of pentazole-induced convulsions; type: in vivo; conditions: sc
Excerpt: Moreover, the antagonism of pentazole-induced convulsions was investigated.
The test has been performed according to known test models in pharmacology,e.g., described in R. A. Turner, Screening Methods in Pharmacology, Academic Press, N.Y. and London 1965, esp. p. 164 ff., or, Woodbury, P. M., Perry, I. K. and Schmidt, R. P. Antiepileptic Drugs, Raven Press, N.Y. 1972.

[4] = clonic, read-out: Antagonism of pentazole-induced convulsions, ED50 s.c., Clonic convulsions
[5] = death, read-out: Antagonism of pentazole-induced convulsions, ED50 s.c., Death
[6] = tonic, read-out: Antagonism of pentazole-induced convulsions, ED50 s.c., Tonic convulsions

Compound | In vitro IC50, inhibition of 3H flunitrazepam binding (Affinity for the benzodiazepine receptor) (benzodiazepine receptor [1]) | In vivo ED50, inhibition of 3H flunitrazepam binding (Affinity for the benzodiazepine receptor) (benzodiazepine receptor [2]) | ED50 [3, 4] | ED50 [3, 5] | ED50 [3, 6]
CCN(CC)N=Cc1cc2c(cn1)[nH]c1ccccc12 [drawing 23] | > 0.1 µg/mL | 72 mg/kg | – | – | –
C(=NN1CCCCC1)c1cc2c(cn1)[nH]c1ccccc12 [drawing 43] | – | – | > 100 mg/kg | > 100 mg/kg | 50 mg/kg
CN(C)S(=O)(=O)c1ccc2[nH]c3cnc(C=NO)cc3c2c1 [CHNOH, drawing 36] | 0.0017 µg/mL | 300 mg/kg | – | – | –
CC(=NO)c1cc2c(cn1)[nH]c1ccccc12 [drawing 11] | > 0.1 µg/mL | 186 mg/kg | – | – | –
CNC(=O)CC(=O)c1cc2c(cn1)[nH]c1ccccc12 [COCH2 CONHCH3] | > 0.1 µg/mL | > 250 mg/kg | – | – | –
C(=NN1CCCC1)c1cc2c(cn1)[nH]c1ccccc12 [drawing 31] | > 0.1 µg/mL | 49 mg/kg | – | – | –
CN(C)S(=O)(=O)c1ccc2[nH]c3cnc(C=O)cc3c2c1 [CHO, drawing 30, 6-dimethylsulfamoyl-beta-carboline-3-carboxaldehyde] | > 0.1 µg/mL | > 300 mg/kg | – | – | –
CN(C)C=NC(=O)c1cc2c(cn1)[nH]c1ccccc12 | 0.09 µg/mL | > 250 mg/kg | – | – | –
CN(C)S(=O)(=O)c1ccc2[nH]c3cnc(C=NN4CCCC4)cc3c2c1 [drawing 34] | 0.008 µg/mL | 210 mg/kg | – | – | –
Cc1noc(-c2cc3c(cn2)[nH]c2ccccc23)n1 | 0.00056 µg/mL | 15 mg/kg | – | – | –
C(=NN1CCCCC1)c1cc2c(cn1)[nH]c1ccccc12 [drawing 27] | > 0.1 µg/mL | > 250 mg/kg | – | – | –
CN(C)N=Cc1cc2c(cn1)[nH]c1ccc(S(=O)(=O)N(C)C)cc12 [drawing 46] | – | – | 20 mg/kg | 15 mg/kg | 15 mg/kg
C(=NN1CCOCC1)c1cc2c(cn1)[nH]c1ccccc12 [drawing 28] | > 0.1 µg/mL | > 250 mg/kg | – | – | –
Cc1n[nH]c(-c2cc3c(cn2)[nH]c2ccccc23)n1 | 0.096 µg/mL | 139 mg/kg | – | – | –
CN1CCN(N=Cc2cc3c(cn2)[nH]c2ccccc23)CC1 | 0.1 µg/mL | 210 mg/kg | – | – | –
O=C(c1ccccc1)c1cc2c(cn1)[nH]c1ccccc12 [COC6 H5, 3-benzoyl-beta-carboline] | 0.00427 µg/mL | 223 mg/kg | – | – | –
CNN=Cc1cc2c(cn1)[nH]c1ccccc12 [CHNNHCH3, beta-carboline-3-carboxaldehyde-methylhydrazone] | 0.149 µg/mL | 92 mg/kg | – | – | –
C(=NNc1ccccc1)c1cc2c(cn1)[nH]c1ccccc12 [CHNNHC6 H5, beta-carboline-3-carboxaldehyde-phenylhydrazone] | – | > 250 mg/kg | – | – | –
O=C1CC(c2cc3c(cn2)[nH]c2ccccc23)=NO1 | 0.156 µg/mL | 100 mg/kg | – | – | –
C(=NN1CCOCC1)c1cc2c(cn1)[nH]c1ccccc12 [drawing 44] | – | – | 100 mg/kg | 50 mg/kg | 50 mg/kg

Compound | In vitro IC50, inhibition of 3H flunitrazepam binding (Affinity for the benzodiazepine receptor) (benzodiazepine receptor [1]) | In vivo ED50, inhibition of 3H flunitrazepam binding (Affinity for the benzodiazepine receptor) (benzodiazepine receptor [2]) | ED50 [3, 4] | ED50 [3, 5] | ED50 [3, 6]
c1ccc2c(c1)[nH]c1cnc(-c3nc[nH]n3)cc12 | 0.104 µg/mL | 26 mg/kg | – | – | –
CC(=NN(C)C)c1cc2c(cn1)[nH]c1ccccc12 [drawing 25] | > 0.1 µg/mL | 119 mg/kg | – | – | –
CN(C)N=Cc1cc2c(cn1)[nH]c1ccccc12 [drawing 13] | 0.0417 µg/mL | 54 mg/kg | – | – | –
NC(=O)NN=Cc1cc2c(cn1)[nH]c1ccccc12 [CHNNHCONH2, beta-carboline-3-carboxaldehyde-semicarbazone] | > 0.1 µg/mL | > 250 mg/kg | – | – | –
ON=Cc1cc2c(cn1)[nH]c1ccccc12 [CHNOH, beta-carboline-3-carboxaldehyde-oxime] | 0.0087 µg/mL | 19 mg/kg | – | – | –
C(=NOCc1ccccc1)c1cc2c(cn1)[nH]c1ccccc12 [CHNOCH2 C6 H5, beta-carboline-3-carboxaldehyde-oxime-benzylether] | 0.0525 µg/mL | > 250 mg/kg | – | – | –
CCOC(=O)CC(=O)c1cc2c(cn1)[nH]c1ccccc12 [COCH2 COOC2 H5, 3-carboethoxy-acetyl-beta-carboline] | – | > 250 mg/kg | – | – | –
O=C(N=CNO)c1cc2c(cn1)[nH]c1ccccc12 [CONCHNHOH, N-[(hydroxyamino)methylene]-beta-carboline-carboxamide] | – | 93 mg/kg | – | – | –
CN(C)N=Cc1cc2c(cn1)[nH]c1ccc(S(=O)(=O)N(C)C)cc12 [drawing 32] | 0.004 µg/mL | 35 mg/kg | – | – | –
CCCCC(=O)c1cc2c(cn1)[nH]c1ccccc12 [COCH2 CH2 CH2 CH3, 3-pentanoyl-beta-carboline] | 0.02 µg/mL | 144 mg/kg | – | – | –
Cn1cnc(-c2cc3c(cn2)[nH]c2ccccc23)n1 | > 0.4 µg/mL | 145 mg/kg | – | – | –
CN1N=C(c2cc3c(cn2)[nH]c2ccccc23)CC1=O | > 0.4 µg/mL | > 250 mg/kg | – | – | –
O=C1CC(c2cc3c(cn2)[nH]c2ccccc23)=NN1 | > 0.1 µg/mL | > 250 mg/kg | – | – | –
O=CNC(=O)c1cc2c(cn1)[nH]c1ccccc12 [CONHCHO, beta-carboline-3-(N-formylcarboxamide)] | 0.034 µg/mL | 197 mg/kg | – | – | –
Cc1nc(-c2cc3c(cn2)[nH]c2ccccc23)n(C)n1 | 0.179 µg/mL | > 300 mg/kg | – | – | –
CCCCC(=NO)c1cc2c(cn1)[nH]c1ccccc12 | 0.468 µg/mL | > 250 mg/kg | – | – | –
CC(=O)ON=Cc1cc2c(cn1)[nH]c1ccccc12 [CHNOCOCH3] | 0.169 µg/mL | > 250 mg/kg | – | – | –
CONC=NC(=O)c1cc2c(cn1)[nH]c1ccccc12 | 0.1 µg/mL | > 250 mg/kg | – | – | –
C(=Nn1cnnc1)c1cc2c(cn1)[nH]c1ccccc12 | > 0.1 µg/mL | > 250 mg/kg | – | – | –
